Key:
CAL51 mutant cell line = experiment: CellTiter-Glo 2.0 cell viability, 7x7 combination dose response matrix, synergy scoring; format: cell-based
EBC-1 cell line = experiment: as above; format: cell-based
NCI-H1155 cell line = experiment: as above; format: cell-based
NCI-H2023 cell line = experiment: as above; format: cell-based
CAL51 xenografts = experiment: CAL51 cell-derived xenograft (CDX) in vivo combination study; set-up: species or system SCID Beige mice; details: compound 1-1 3 mg/kg; for antitumor effect vs vehicle (tumor volume): day 21, ANOVA with post hoc Tukey's test; for antitumor effect vs vehicle (tumor volume) / Δ TV ratio to vehicle group (A/C, B/C, (AB)/C): p.o. qd; for Δ TV ratio to vehicle group (A/C, B/C, (AB)/C): day 21, Clarke method; for Δ TV (delta tumor volume): p.o. qd for 21 days, average of four tumors
Experimental: Compound 1-1 was formulated every day freshly as a solution in 5% DMSO/95% (30% w/v HPβCD in water). This formulation was also used as vehicle control. Everolimus was formulated as a suspension in 1% MC (400 cps), which was prepared every 3 days.
Body weights were measured at the same time.
Compound 1-1 was formulated every day freshly as a solution in 5% DMSO/95% (30% w/v HPβCD in water). This formulation was also used as vehicle control. Alpelisib was formulated as a solution in 20% captisol+80% water (pH adjusted to 4), which was prepared every week.

[1] = combined with Alpelisib 41-10000 nM, first compound 4.1-1000 nM
[2] = combined with Capivasertib 41-10000 nM, first compound 4.1-1000 nM
[3] = combined with Everolimus 4.1-1000 nM, first compound 4.1-1000 nM
[4] = combined with GNE-477 41-10000 nM, first compound 4.1-1000 nM
[5] = combined with KU-0063794 41-10000 nM, first compound 4.1-1000 nM
[6] = combined with M2698 41-10000 nM, first compound 4.1-1000 nM
[7] = EBC-1, combined with GNE-477 21-10000 nM, first compound 1.05-500 nM
[8] = EBC-1, combined with KU-0063794 21-10000 nM, first compound 1.05-500 nM
[9] = EBC-1, combined with M2698 21-10000 nM, first compound 1.05-500 nM
[10] = combined with GNE-477 21-10000 nM, first compound 1.05-500 nM
[11] = combined with KU-0063794 21-10000 nM, first compound 1.05-500 nM
[12] = combined with M2698 21-10000 nM, first compound 1.05-500 nM
[13] = NCI-H2023, combined with GNE-477 21-10000 nM, first compound 1.05-500 nM
[14] = NCI-H2023, combined with KU-0063794 21-10000 nM, first compound 1.05-500 nM
[15] = NCI-H2023, combined with M2698 21-10000 nM, first compound 1.05-500 nM
[16] = combined with Alpelisib 41-10000 nM, first compound 0.41-100 nM
[17] = combined with Capivasertib 41-10000 nM, first compound 0.41-100 nM
[18] = combined with Everolimus 4.1-1000 nM, first compound 0.41-100 nM
[19] = combined with GNE-477 41-10000 nM, first compound 0.41-100 nM
[20] = combined with KU-0063794 41-10000 nM, first compound 0.41-100 nM
[21] = combined with M2698 41-10000 nM, first compound 0.41-100 nM
[22] = EBC-1, combined with Alpelisib 21-10000 nM, first compound 0.21-100 nM
[23] = EBC-1, combined with Capivasertib 21-10000 nM, first compound 0.21-100 nM
[24] = EBC-1, combined with Everolimus 2.1-1000 nM, first compound 0.21-100 nM
[25] = EBC-1, combined with GNE-477 21-10000 nM, first compound 0.21-100 nM
[26] = EBC-1, combined with KU-0063794 21-10000 nM, first compound 0.21-100 nM
[27] = EBC-1, combined with M2698 21-10000 nM, first compound 0.21-100 nM
[28] = combined with Alpelisib 21-10000 nM, first compound 0.21-100 nM
[29] = combined with Capivasertib 21-10000 nM, first compound 0.21-100 nM
[30] = combined with Everolimus 2.1-1000 nM, first compound 0.21-100 nM
[31] = combined with GNE-477 21-10000 nM, first compound 0.21-100 nM
[32] = combined with KU-0063794 21-10000 nM, first compound 0.21-100 nM
[33] = combined with M2698 21-10000 nM, first compound 0.21-100 nM
[34] = NCI-H2023, combined with Alpelisib 21-10000 nM, first compound 0.21-100 nM
[35] = NCI-H2023, combined with Capivasertib 21-10000 nM, first compound 0.21-100 nM
[36] = NCI-H2023, combined with Everolimus 2.1-1000 nM, first compound 0.21-100 nM
[37] = NCI-H2023, combined with GNE-477 21-10000 nM, first compound 0.21-100 nM
[38] = NCI-H2023, combined with KU-0063794 21-10000 nM, first compound 0.21-100 nM
[39] = NCI-H2023, combined with M2698 21-10000 nM, first compound 0.21-100 nM

O=C1CCC(N2Cc3ccc(COC(=O)Nc4cc(OC(F)(F)F)ccc4F)cc3C2=O)C(=O)N1 (stereo not shown) [Compound 1-1, [2-(2,6-dioxopiperidin-3-yl)-3-oxo-2,3-dihydro-1H-isoindol-5-yl]methyl N-[2-fluoro-5-(trifluoromethoxy)phenyl]carbamate]
Mean Bliss synergy score (CAL51 mutant cell line; [1]): 4.76
Mean Loewe synergy score (CAL51 mutant cell line; [1]): 0.35
Mean Bliss synergy score (CAL51 mutant cell line; [2]): −0.44
Mean Loewe synergy score (CAL51 mutant cell line; [2]): −3.66
Mean Bliss synergy score (CAL51 mutant cell line; [3]): −3.14
Mean Loewe synergy score (CAL51 mutant cell line; [3]): 4.91
Mean Bliss synergy score (CAL51 mutant cell line; [4]): 2.54
Mean Loewe synergy score (CAL51 mutant cell line; [4]): −2.04
Mean Bliss synergy score (CAL51 mutant cell line; [5]): 2.83
Mean Loewe synergy score (CAL51 mutant cell line; [5]): −1.46
Mean Bliss synergy score (CAL51 mutant cell line; [6]): −2.37
Mean Loewe synergy score (CAL51 mutant cell line; [6]): −2.73
Mean Bliss synergy score (EBC-1 cell line; [7]): 12.03
Mean Loewe synergy score (EBC-1 cell line; [7]): 1.96
Mean Bliss synergy score (EBC-1 cell line; [8]): 13.27
Mean Loewe synergy score (EBC-1 cell line; [8]): −6.72
Mean Bliss synergy score (EBC-1 cell line; [9]): 10.48
Mean Loewe synergy score (EBC-1 cell line; [9]): 8.11
Mean Bliss synergy score (EBC-1 cell line; combined with GNE-477 (21 nM to 10 uM), EBC-1 cell line, mean across dose response matrix, 72 hrs): 12.03
Mean Bliss synergy score (NCI-H1155 cell line; [10]): 1.97
Mean Loewe synergy score (NCI-H1155 cell line; [10]): 4.77
Mean Bliss synergy score (NCI-H1155 cell line; [11]): 0.38
Mean Loewe synergy score (NCI-H1155 cell line; [11]): 3.70
Mean Bliss synergy score (NCI-H1155 cell line; [12]): 1.48
Mean Loewe synergy score (NCI-H1155 cell line; [12]): 5.14
Mean Bliss synergy score (NCI-H2023 cell line; [13]): 16.57
Mean Loewe synergy score (NCI-H2023 cell line; [13]): 4.95
Mean Bliss synergy score (NCI-H2023 cell line; [14]): 16.57
Mean Loewe synergy score (NCI-H2023 cell line; [14]): 7.27
Mean Bliss synergy score (NCI-H2023 cell line; [15]): 10.90
Mean Loewe synergy score (NCI-H2023 cell line; [15]): 9.33
antitumor effect vs vehicle (tumor volume) (CAL51 xenografts; alpelisib 20 mg/kg): neither alpelisib nor compound 1-1 produced a statistically significant antitumor effect
antitumor effect vs vehicle (tumor volume) (CAL51 xenografts; everolimus 2 mg/kg): statistically significant antitumor effect
Δ TV ratio to vehicle group (A/C, B/C, (AB)/C) (CAL51 xenografts; alpelisib 20 mg/kg): 0.38
Δ TV ratio to vehicle group (A/C, B/C, (AB)/C) (CAL51 xenografts; everolimus 2 mg/kg): 0.38
Δ TV (delta tumor volume) (CAL51 xenografts; day 21, alpelisib 20 mg/kg, combination 20 + 3 mg/kg): 215 mm3
Δ TV (delta tumor volume) (CAL51 xenografts; day 21, everolimus 2 mg/kg, combination 2 + 3 mg/kg): 215 mm3

Cc1ccc(NC(=O)OCc2ccc3c(c2)C(=O)N(C2CCC(=O)NC2=O)C3)cc1Cl (stereo not shown) [Compound 1-6, [2-(2,6-dioxopiperidin-3-yl)-3-oxo-2,3-dihydro-1H-isoindol-5-yl]methyl N-(3-chloro-4-methylphenyl)carbamate]
Mean Bliss synergy score (CAL51 mutant cell line; [16]): −0.63
Mean Loewe synergy score (CAL51 mutant cell line; [16]): −1.04
Mean Bliss synergy score (CAL51 mutant cell line; [17]): 0.95
Mean Loewe synergy score (CAL51 mutant cell line; [17]): −0.06
Mean Bliss synergy score (CAL51 mutant cell line; [18]): −1.53
Mean Loewe synergy score (CAL51 mutant cell line; [18]): −0.66
Mean Bliss synergy score (CAL51 mutant cell line; [19]): −1.35
Mean Loewe synergy score (CAL51 mutant cell line; [19]): −2.34
Mean Bliss synergy score (CAL51 mutant cell line; [20]): −1.01
Mean Loewe synergy score (CAL51 mutant cell line; [20]): −0.85
Mean Bliss synergy score (CAL51 mutant cell line; [21]): 0.82
Mean Loewe synergy score (CAL51 mutant cell line; [21]): −0.62
Mean Bliss synergy score (EBC-1 cell line; [22]): 17.01
Mean Loewe synergy score (EBC-1 cell line; [22]): 3.84
Mean Bliss synergy score (EBC-1 cell line; [23]): 16.12
Mean Loewe synergy score (EBC-1 cell line; [23]): 6.11
Mean Bliss synergy score (EBC-1 cell line; [24]): 7.12
Mean Loewe synergy score (EBC-1 cell line; [24]): 8.08
Mean Bliss synergy score (EBC-1 cell line; [25]): 10.24
Mean Loewe synergy score (EBC-1 cell line; [25]): 2.07
Mean Bliss synergy score (EBC-1 cell line; [26]): 8.70
Mean Loewe synergy score (EBC-1 cell line; [26]): 4.67
Mean Bliss synergy score (EBC-1 cell line; [27]): 8.18
Mean Loewe synergy score (EBC-1 cell line; [27]): 8.00
Mean Loewe synergy score (EBC-1 cell line; combined with Everolimus (2.1 nM to 1 uM), EBC-1 cell line, mean across dose response matrix, 72 hrs): 8.08
Mean Bliss synergy score (NCI-H1155 cell line; [28]): 5.23
Mean Loewe synergy score (NCI-H1155 cell line; [28]): 2.10
Mean Bliss synergy score (NCI-H1155 cell line; [29]): 5.58
Mean Loewe synergy score (NCI-H1155 cell line; [29]): 4.36
Mean Bliss synergy score (NCI-H1155 cell line; [30]): −1.66
Mean Loewe synergy score (NCI-H1155 cell line; [30]): 6.77
Mean Bliss synergy score (NCI-H1155 cell line; [31]): 3.25
Mean Loewe synergy score (NCI-H1155 cell line; [31]): 3.14
Mean Bliss synergy score (NCI-H1155 cell line; [32]): 3.66
Mean Loewe synergy score (NCI-H1155 cell line; [32]): 2.43
Mean Bliss synergy score (NCI-H1155 cell line; [33]): 2.04
Mean Loewe synergy score (NCI-H1155 cell line; [33]): 4.27
Mean Bliss synergy score (NCI-H2023 cell line; [34]): 19.68
Mean Loewe synergy score (NCI-H2023 cell line; [34]): 8.92
Mean Bliss synergy score (NCI-H2023 cell line; [35]): 22.78
Mean Loewe synergy score (NCI-H2023 cell line; [35]): 11.70
Mean Bliss synergy score (NCI-H2023 cell line; [36]): 13.21
Mean Loewe synergy score (NCI-H2023 cell line; [36]): 17.02
Mean Bliss synergy score (NCI-H2023 cell line; [37]): 14.13
Mean Loewe synergy score (NCI-H2023 cell line; [37]): 5.10
Mean Bliss synergy score (NCI-H2023 cell line; [38]): 18.40
Mean Loewe synergy score (NCI-H2023 cell line; [38]): 11.37
Mean Bliss synergy score (NCI-H2023 cell line; [39]): 12.91
Mean Loewe synergy score (NCI-H2023 cell line; [39]): 11.66
Mean Bliss synergy score (NCI-H2023 cell line; combined with KU-0063794 (21 nM to 10 uM), NCI-H2023 cell line, mean across dose response matrix, 72 hrs): 18.40
Mean Loewe synergy score (NCI-H2023 cell line; combined with M2698 (21 nM to 10 uM), NCI-H2023 cell line, mean across dose response matrix, 72 hrs): 11.66

From patent publication US20260166045A1, “COMBINATION THERAPY COMPRISING GSPT1-DIRECTED MOLECULAR GLUE DEGRADERS AND PI3K/AKT/mTOR PATHWAY INHIBITORS” (Monte Rosa Therapeutics, Inc., priority 2022, published 2026)
